From patent US9844521B2, “Pharmaceutical composition comprising ginger extract or shogaol” (UNIVERSITY-INDUSTRY COOPERATION GROUP OF KYUNG HEE …, priority 2008, dated 2017) come the findings set out here.

The subject of one assay is ICR mice. The assay can be described thus: Passive avoidance task (cognitive ability enhancement). The assay is classed as in vivo, mouse. The settings on record: 5 mg/kg oral once per day for 3 days; control 165.50±23.39 seconds; p<0.05. As for the experimental part: Male ICR mice having a weight of 25-28 g were obtained and nurtured in an animal laboratory at Kyunghee University Graduate School of East-West Medicine Science for 7 days for adaptation. Water and feed were freely supplied, and the temperature (22±2[…]), humidity (53±3%), and a cycle of brightness and darkness (12 hours) were automatically controlled. Shogaol used was obtained from WAKO Company (Japan).
Mice were divided into two groups, each of which consisted of 10 mice. A first group (control) was orally administered with 10% dimethyl sulfoxide in an amount of 5 ml per mouse weight kg for 3 days, and a second group was orally administered with 5 mg/kg of shogaol dissolved in 10% dimethyl sulfoxide for 3 days. […]
In a test device having an inner structure divided into two identical spaces with a door therebetween, on a first day, one space was bright and the other space was dark, and a test animal was allowed to stay in the bright space for 10 seconds and then the door was opened, and when the test animal moved toward the dark space, 0.25 mA of an electrical stimulation was applied to the feet of the test animal. After 24 hours, the same passive avoidance task was performed and a time during which the test animal stayed in the light space was measured. […]

The subject of assay [1] is 2-vessel occlusion cerebral ischemia model. The experiment in a line: 2-vessel occlusion cerebral ischemia model, neurons in CA1 of hippocampus. Format: in vivo, mouse. The settings on record: 10 mg/kg in 10% tween 80, immediately after 2VO then once per day for 3 days. As to the method: 7-week old C57BL/6 based male mice (19-22 g) were obtained and nurtured in an animal laboratory at Kyunghee University Graduate School of East-West Medicine Science for one week or more for adaptation. Water and feed were freely supplied, and the temperature (22±2[…]), humidity (53±3%), and a cycle of brightness and darkness (12 hours) were automatically controlled.
Mice were divided into three groups, each of which consisted of 10 mice. Anesthesia was induced in an anesthetic gas (O2: 30%, N2O: 70%, and isoflurane: 2.0%) chamber, and mice of the respective groups were located on an operating table with their backs on the operating table. The skin of each mouse was cut upward by about 1.5 cm from a point where the upper limbs and an intermediate line meet, and then, facing common carotid arteries were exposed without damage of tissues. Tissues and nerves attached to the carotid arteries were dissociated and occlusion was performed thereon by using an aneurism clip for 25 minutes. In this regard, the temperature of the mice was measured by using a rectal thermometer and maintained at 37±0.5 □.
A sham control refers to a group obtained as described above except for the occlusion of the common carotid arteries. Medicine administration was performed immediately after a 2VO step, and thereafter, performed once per day for 3 days. […]

For the compound `CCCCC/C=C/C(=O)CCc1ccc(O)c(OC)c1` [shogaol, (E)-1-(4-hydroxy-3-methoxyphenyl)dec-4-en-3-one], in the assay with ICR mice, the latency time amounted to 240.63 ± 24.14 s. In assay [1], the “neuron apoptosis suppression efficacy in CA1” value is 29.5±15.4 % of the 2VO step group.
